According to patent US11725020B2, “Prodrugs of a CDK inhibitor for treating cancers” (priority 2019, dated 2023):
“Also recorded” adds a separate entry of the source.

Legend:
[1] = Toxicity study in mice: tolerability after i.v. administration; assay type: in vivo; conditions: for toxicity compared with AT7519: 2-fold (11) and 4-fold (12) molar-equivalents of the AT7519 threshold level
Description: (§1) Male mice (BABL/c) of 20 to 22 g were maintained under standard conditions and randomized into groups. […] Doses were calculated and expressed in mmol/kg-body weight, and drug tolerability, pharmacokinetics, and body weight effect were assessed.

[2] = Toxicity study in mice: toxicokinetics, plasma AT7519 concentration; assay type: in vivo, Male mice (BABL/c); conditions: for plasma AT7519 exposures compared with AT7519 dosing: i.v., compound 11 0.062 mmol/kg, compound 12 0.124 mmol/kg, AT7519 0.031 mmol/kg
Description: as §1
Blood samples were collected at 2 min, 10 min, 1 h, and 4 h. Concentration of T7519 was analyzed in each sample using LC-MS/MS method. The results are summarized in Table 3, and the concentration-time curves are illustrated in FIG. 1.

[3] = Toxicity study in mice: body weight after a single i.v. dose; assay type: in vivo, Male mice (BABL/c)
Description: as §1
Clinical observations were made in the following schedule: continuous observation in the first four hours after dosing, and then twice daily, at one week time, and at day 14. The parameters for observation included animal's physical and mental behaviors, autonomous activity, hair, gland secretion, feces, and death. Body temperature was taken at pre-dosing, and on days 3, 5, 7, and 10 post-dosing.
The body weights of the animals are summarized in Table 4, and the trend lines for animal body weight changes in each group are given in FIG. 2. The body weight was average weight of all the animals in the group from a single measurement.

[4] = Toxicokinetic study in rats: dose exploration; assay type: in vivo, Male SD (Sprague Dawley) rats; conditions: rat, i.v., one animal
Description: (§2) Male SD (Sprague Dawley) rats of body weight 220 to 240 g were maintained under standard conditions and randomized into three groups. On day 0 (initial day), all the animals were given one of the three compounds intravenously. Dose was calculated in mmol/kg.
(a) Dose exploration: One animal from each group was given the preset high dose of each compound.

[5] = Toxicokinetic study in rats: TK study, plasma AT7519 concentration; assay type: in vivo, Male SD (Sprague Dawley) rats; conditions: male, Sprague-Dawley, iv; rat plasma, I.V., 0.039 mmol/kg
Description: as §2
(b) TK study: The remaining animals were randomized into three groups, with 6 in each group. […] TK analysis was conducted as follows: Blood samples were collected at time points of 2 min, 10 min, 1 h, 2 h, and 6 h into sample tube (heparinized).

non-CDK kinases = conditions: with the exception of GSK3β; cited from earlier work
MCF-7 = conditions: read-out: antiproliferative IC50; cited from earlier work
SW620 = conditions: read-out: antiproliferative IC50; cited from earlier work
MM.1S = conditions: 48 hours, read-out: cytotoxicity IC50; cited from earlier work
U266 = conditions: U266, 48 hours; read-out: cytotoxicity IC50; cited from earlier work
MM.1R = conditions: 48 hours, read-out: cytotoxicity IC50; cited from earlier work
[6] = test system: peripheral blood mononuclear cells (PBMNC); conditions: cited from earlier work
[7] = test system: HCT116 colon cancer xenograft; conditions: 9.1 mg/kg twice daily, early-stage and advanced-stage s.c. tumors; cited from earlier work
[8] = test system: HT29 colon cancer xenograft; conditions: 9.1 mg/kg twice daily, early-stage and advanced-stage s.c. tumors; cited from earlier work
human MM xenograft = conditions: 15 mg/kg; cited from earlier work
[9] = human, in vivo; cited from earlier work
[10] = 32.4 mg/m^2; cited from earlier work
[11] = single i.v. dose 0.062 mmol/kg on day 0, group average
[12] = single i.v. dose 0.124 mmol/kg on day 0, group average
[13] = male, BALB/c, mouse, plasma, iv, I.V., 0.031 mmol/kg
[14] = single i.v. dose 0.031 mmol/kg on day 0, group average

Structure (SMILES): O=C(NC1CCNCC1)c1nn(COP(=O)([O-])[O-])cc1NC(=O)c1c(Cl)cccc1Cl.[Na+].[Na+] [Compound 11]
- Death rate (%) ([1]; mice, i.v., 0.062 mmol/kg): 0%
- toxicity compared with AT7519 ([1]; mice, i.v.): much less toxic than AT7519
- plasma AT7519 exposures compared with AT7519 dosing [2]: much higher
- Body weight (g) Day 0 [3, 11]: 19.16 g
- Body weight (g) Day 1 [3, 11]: 18.58 g
- Body weight (g) Day 2 [3, 11]: 18.83 g
- Body weight (g) Day 4 [3, 11]: 19.95 g
- Body weight (g) Day 7 [3, 11]: 20.16 g
- Body weight (g) Day 10 [3, 11]: 20.52 g
- Animal death ([4]; 0.055 mmol/kg, listed as compound 11, phosphate disodium Salt): already at their lethal doses
- Animal death ([4]; 0.055 mmol/kg, phosphate disodium Salt): Died at 2 min post-dosing

Structure (SMILES): COC(=O)[C@H](C)NP(=O)(Oc1ccccc1)N1CCC(NC(=O)c2n[nH]cc2NC(=O)c2c(Cl)cccc2Cl)CC1 (stereo partly drawn) [Compound 12, N-((4-(4-(2,6-dichlorobenzamido)-1H-pyrazole-3-carboxamido)-1-piperidinyl)(phenoxy)phosphinyl)-L-alanine methyl Ester]
- Death rate (%) ([1]; mice, i.v., 0.124 mmol/kg): 0%
- toxicity compared with AT7519 ([1]; mice, i.v.): much less toxic than AT7519
- plasma AT7519 exposures compared with AT7519 dosing [2]: much higher
- Body weight (g) Day 0 [3, 12]: 19.75 g
- Body weight (g) Day 1 [3, 12]: 18.70 g
- Body weight (g) Day 2 [3, 12]: 19.17 g
- Body weight (g) Day 4 [3, 12]: 19.95 g
- Body weight (g) Day 7 [3, 12]: 20.79 g
- Body weight (g) Day 10 [3, 12]: 21.30 g
- Animal death ([4]; 0.125 mmol/kg): Behaved normally
- Animal death ([4]; 0.125 mmol/kg, listed as compound 12): did not induce the animal death

Structure (SMILES): O=C(NC1CCNCC1)c1n[nH]cc1NC(=O)c1c(Cl)cccc1Cl [AT7519, 4-(2,6-Dichlorobenzamido)-N-(4-piperidinyl)-1H-pyrazole-3-carboxamide]
- threshold lethal dose ([1]; male, BALB/c, mouse, in vivo, iv): 0.031 mmol/kg
- Death rate (%) ([1]; mice, i.v., 0.031 mmol/kg): 20%
- Number of deaths ([1]; mice, i.v., 0.031 mmol/kg, 20 animals in group): 4
- Death rate (%) ([1]; mice, i.v., 0.039 mmol/kg): 100%
- concentration at 2 min [2, 13]: 10200 ng/mL
- concentration at 10 min [2, 13]: 1840 ng/mL
- concentration at 1 h [2, 13]: 489 ng/mL
- concentration at 4 h [2, 13]: 47 ng/mL
- Body weight (g) Day 0 [3, 14]: 19.44 g
- Body weight (g) Day 1 [3, 14]: 19.53 g
- Body weight (g) Day 2 [3, 14]: 19.45 g
- Body weight (g) Day 4 [3, 14]: 20.94 g
- Body weight (g) Day 7 [3, 14]: 20.83 g
- Body weight (g) Day 10 [3, 14]: 20.63 g
- Animal death ([4]; 0.049 mmol/kg): already at their lethal doses; also recorded: Died immediately post-dosing
- concentration at 2 min [5]: 19100 ng/mL
- concentration at 10 min [5]: 4600 ng/mL
- concentration at 1 h [5]: 814 ng/mL
- concentration at 4 h [5]: 554 ng/mL
- concentration at 6 h [5]: 148 ng/mL
- activity against all non-CDK kinases (non-CDK kinases): inactive
- IC50 (MCF-7): 40 nM
- IC50 (SW620): 940 nM
- IC50 (MM.1S): 500 nM
- IC50 (U266): 500 nM
- IC50 (MM.1R): > 2000 nM
- cytotoxicity in PBMNC [6]: does not induce cytotoxicity
- effect on tumors [7]: tumor regression
- effect on tumors [8]: tumor regression
- median overall survival (human MM xenograft): prolong the median overall survival
- tumor growth (human MM xenograft): inhibit tumor growth
- AEs of CTCAE grade 1 severity [9]: 46.7%
- AEs of CTCAE grade 2 severity [9]: 37.8%
- patients with at least one treatment-related AE [9]: 82.1%
- treatment-emergent AE anorexia [9]: 39.3%
- treatment-emergent AE constipation [9]: 32.1%
- treatment-emergent AE fatigue [9]: 42.9%
- treatment-emergent AE hypotension [9]: 25.0%
- treatment-emergent AE nausea [9]: 50.0%
- treatment-emergent AE peripheral edema [9]: 25.0%
- treatment-emergent AE pyrexia [9]: 25.0%
- treatment-emergent AE vomiting [9]: 39.3%
- DLT among the initial three patients [10]: one patient experienced DLT (grade 3 fatigue)
- DLT in two additional patients [10]: both of whom experienced DLTs (febrile neutropenia and grade 3 hypokalemia and mucositis)
